The test system of one experiment is E. coli CA-20. The experiment can be described thus: MIC assessment (TREK Sensititre). The conditions noted are these: Escherichia coli, CA20; E. coli CA-20; read-out: MIC. Format: cell-based, Escherichia coli. On the procedure:
(§1) Bacterial strains. Multiple Amp^r strains from feces of broiler chickens without antibiotic treatment were recovered on Columbia blood Agar base (Becton, […] Dickinson and Company, Franklin Lakes, NJ) supplemented with 5% defibrinated sheep blood (Thermo Scientific™, Grand Island, NY). The strains were maintained in Columbia broth (Becton Dickinson and Company, Franklin Lakes, NJ), and propagated by aerobic growth at 37° C., and further subjected to strain identification and Minimum Inhibition Concentration (MIC) assessments.
(§2) Minimum inhibition concertation (MIC) assessment. A TREK Sensititre diagnostic system (Thermo scientific, Oakwood Village, OH, USA) was used to assess the AR phenotype and MIC of isolated strains. Protocols to use this system can be found on www.trekds.com. Cation-adjusted Mueller Hinton Broth (Becton, Dickinson and Company, MD, USA) was used as basic medium.

For the next experiment, the system named is E. coli CA-4. The experiment can be described thus: MIC assessment (TREK Sensititre). Format: cell-based, Escherichia coli. Conditions: Escherichia coli, CA4; E. coli CA-4; read-out: MIC. Here is the method:
as §1, §2

For experiment [1], the system named is Lactobacillus crispatus CG-12. The experiment can be described thus: MIC assessment (TREK Sensititre). The conditions noted are these: Lactobacillus crispatus, CG12; L. crispatus CG-12; read-out: MIC. The class given is cell-based. Here is the method: (§3) Multiple commensal bacterial strains from chicken feces were recovered from Columbia blood Agar base (Becton, […] Dickinson and Company, Franklin Lakes, NJ) supplemented with 5% defibrinated sheep blood (Thermo Scientific™, Grand Island, NY), and maintained in Columbia broth (Becton Dickinson and Company, Franklin Lakes, NJ) and propagated by anaerobic growth at 37° C. The strains were subjected to antibiotic susceptibility assessment followed by strain identification.
as §2

The test system of a further experiment is CG-12. The experiment is described as follows: Screening of antibiotic susceptible commensal strains on antibiotic agar plates. The class given is cell-based, Lactobacillus crispatus. Conditions: 16 μg/mL tetracycline, 100 μg/mL erythromycin, 32 μg/mL ampicillin, 152 μg/mL sulfamethoxazole with 8 μg/mL trimethoprim. Here is the method:
as §3
Screening of antibiotic susceptible commensal strains. Recovered commensal strain isolates (over 1000 colonies) were spotted on Columbia broth (Becton, […] Dickinson and Company, Franklin Lakes, NJ) agar plates containing each of the four antibiotics for rapid assessment of phenotypic resistance profiles. Screened antibiotics included 16 μg/mL tetracycline (Sigma-Aldrich, St. Louis, MO, USA), 100 μg/mL erythromycin (Fisher Scientific, Waltham, MA, USA), 32 μg/mL ampicillin (Sigma-Aldrich), and 152 μg/mL sulfamethoxazole (Sigma-Aldrich) with 8 μg/mL trimethoprim (Sigma-Aldrich).

In a further experiment the test system is Three Amp^r E. coli. The experiment is described as follows: MIC assessment, summary for the three strains. Format: cell-based, Escherichia coli. Conditions: E. coli CA-1, CA-4 and CA-20 together. On the procedure:
as §1, §2

Another experiment concerns 16S rRNA gene pool. The experiment is described as follows: Chicken model, qPCR of fecal DNA. Format: in vivo, Leghorn chicken. Conditions: Lc = Lc-Amp group, Amp = Saline-Amp group. The source says:
(§4) The chicken model. All procedures were approved by the Institutional Animal Care and Use Committee (protocol No. 2012A00000061, The Ohio State University, Columbus, OH). Leghorn chicken were hatched and maintained at the Ohio Agricultural Research and Development Center (OARDC) poultry research teaching farm (two birds per cage with separate feed and water supply, controlled temperature, filtered air in the room and sterilized feed). Chicken fecal samples were collected on-site and examined for the presence of blaCMY-2 gene pools and microbial profile. Beginning on Day 5 post-hatch, chicken were inoculated with a blaCMY-2^+ E. coli cocktail (0.2 mL/bird, 10^6 CFU/mL) every 24 hours for 4 consecutive days via gavage feeding using 20 ga×1.5 inch animal feeding needle (Fine Science Tools, Foster City, CA, USA). Chickens in non-inoculated control groups were fed with 0.2 mL of saline by the same method. Chickens were then set in cages for 11 days before antibiotic treatment, allowing the microbiota to stabilize.
(§5) Lactobacillus crispatus and antibiotic administration. Lactobacillus crispatus CG-12 was susceptible to ampicillin. To monitor the impact of CG-12 on AR profiles during common ampicillin administration practice, low veterinary Amp dosages (30 mg/kg body weight per day) were selected instead of 300 mg/kg/day. Lactobacillus crispatus CG-12 was administrated in three periods: 1) Day 2 to Day 4 post-hatch; 2) throughout the stabilization; and 3) post-antibiotic challenge on Day 25 to Day 28. During these periods, chickens were inoculated with a Lactobacillus crispatus CG-12 suspension (0.2 mL/bird, 10^6 CFU/mL) every 24 hours for 4 consecutive days via gavage feeding using 20 ga×1.5 inch animal feeding needle (Fine Science Tools, Foster City, CA, USA). Each group contained at least 6 chickens.
(§6) Sample collection. Fresh feces were collected from each chicken on-site in the rearing facility. Fecal samples were collected at the 1st and last day of Lactobacillus inoculation, once a day during the antibiotic administration period, and once every three days during antibiotic withdrawal period up to 14 days from initial antibiotic exposure.
(§7) DNA extraction. Total DNA from chicken fecal samples for real-time quantitative PCR (qPCR) and denaturing gradient gel electrophoresis (DGGE) analyses were extracted according to a published method (Yu and Morrison 2004).
(§8) Real-time quantitative PCR. TaqMan real-time PCR protocol was used to assess blaCMY-2 and 16S rRNA gene pools in total DNA extracted from chicken fecal samples, as described previously (Zhang et al., 2013). […] Each sample was assessed and analyzed in duplicates on a CFX96 system (Bio-Rad, Hercules, CA, USA).
In general terms: In qPCR the cycle at which signal appears reflects the starting amount.

The next experiment relates to blaCMY-2 gene pool. The experiment is described as follows: Chicken model, qPCR of fecal DNA. The class given is in vivo, Leghorn chicken. Conditions: Lc = Lc-Amp group, Amp = Saline-Amp group.
Text: as §4, §5, §6, §7, §8

[2] abbreviates: Day 21, during oral Amp 30 mg/kg/day.

SMILES strings stand for the structures. Converted amounts (≈) assume the structure as drawn.

As to `CC1(C)S[C@@H]2[C@H](NC(=O)[C@H](N)c3ccccc3)C(=O)N2[C@H]1C(=O)O` [AMP, ampicillin], the MIC was more than 16 µg/mL in the experiment on E. coli CA-20, more than 16 µg/mL in the experiment with E. coli CA-4 and 0.5 µg/mL (≈ 1.43 µM) in experiment [1]. The “phenotypic susceptibility on antibiotic agar plates” value in the experiment on CG-12 is “susceptible”. For the same compound, the “resistance phenotype from MIC, in words” value in the experiment with Three Amp^r E. coli is recorded as “high resistance”. Further, the “16S rRNA gene pool” value is 8.5±0.7 log10 (gene copies/g) in the experiment on 16S rRNA gene pool (setting [2]) and 10.5±1.0 log10 (gene copies/g) in the experiment with 16S rRNA gene pool (Day 25, after Amp treatment). The blaCMY-2 gene pool in the experiment with blaCMY-2 gene pool (setting [2]) is reported as 8.7±0.8 log10 (gene copies/g); with blaCMY-2 gene pool (Day 25, after Amp treatment), 9.8±0.9 log10 (gene copies/g).

As a reminder, the MIC is the lowest concentration found to suppress growth.

For the origin of these results see patent US12558386B2, “Methods and compositions to modulate antibiotic resistance and gastrointestinal microbiota” (OHIO STATE INNOVATION FOUNDATION, priority 2018, dated 2026).
